In assay [1] the target is MELK (Homo sapiens, UniProt Q14680). The experiment in a line: Kinase assay: MELK activity, phosphorylation of FITC-labeled histone H3 peptide measured by IMAP fluorescence polarization. The class given is biochemical. As to conditions: read-out: IC50 (μM) (kinase assay). The gist of the method:
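Substrate is FITC-labeled histone H3 peptide. Compounds come from a 12.5 mM DMSO stock, diluted so assay DMSO is 1%. The stop step adds threefold-volume progressive binding solution, followed by 0.5 h at room temperature and an FP read.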

Assay [2] has as its system T47D cells. The experiment in a line: Cell-based assay: anti-proliferative activity, Cell Counting Kit-8, 72 hours (T47D). The following applies: Homo sapiens, T47D, 72 h. The gist of the method: (§1)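 IC50 values come from CCK-8 growth measurements taken 72 hours post-treatment of plated cells with test compounds. Expression of MELK across the panel was assessed through immunoblot of unfractionated lysates.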

Assay [3] has as its system A549 cells. The assay is described as follows: Cell-based assay: anti-proliferative activity, Cell Counting Kit-8, 72 hours (A549). The following applies: Homo sapiens, A549, 72 h, 72 hours. In short, it runs like this: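 A549 cells seeded in 96-well plates and exposed to candidate inhibitors for 72 hours. Growth measured with Cell Counting Kit-8; IC50 values calculated from the dose response.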

The test system of assay [4] is HT-1197 cells. The experiment in a line: Cell-based assay: anti-proliferative activity, Cell Counting Kit-8, 72 hours (HT-1197, negative control without MELK expression). As to conditions: Homo sapiens, HT1197, 72 h, HT1197 cells (negative control, no MELK expression), 72 hours. In short, it runs like this: as §1
For assay [5], the system named is DU4475 cells. The assay is described as follows: Cell-based assay: anti-proliferative activity, Cell Counting Kit-8, 72 hours (DU4475). The following applies: Homo sapiens, DU-4475, 72 h.

Counter-ions that a name gives are not always drawn.

MELK, sequence (Q14680 whole entry, looked up): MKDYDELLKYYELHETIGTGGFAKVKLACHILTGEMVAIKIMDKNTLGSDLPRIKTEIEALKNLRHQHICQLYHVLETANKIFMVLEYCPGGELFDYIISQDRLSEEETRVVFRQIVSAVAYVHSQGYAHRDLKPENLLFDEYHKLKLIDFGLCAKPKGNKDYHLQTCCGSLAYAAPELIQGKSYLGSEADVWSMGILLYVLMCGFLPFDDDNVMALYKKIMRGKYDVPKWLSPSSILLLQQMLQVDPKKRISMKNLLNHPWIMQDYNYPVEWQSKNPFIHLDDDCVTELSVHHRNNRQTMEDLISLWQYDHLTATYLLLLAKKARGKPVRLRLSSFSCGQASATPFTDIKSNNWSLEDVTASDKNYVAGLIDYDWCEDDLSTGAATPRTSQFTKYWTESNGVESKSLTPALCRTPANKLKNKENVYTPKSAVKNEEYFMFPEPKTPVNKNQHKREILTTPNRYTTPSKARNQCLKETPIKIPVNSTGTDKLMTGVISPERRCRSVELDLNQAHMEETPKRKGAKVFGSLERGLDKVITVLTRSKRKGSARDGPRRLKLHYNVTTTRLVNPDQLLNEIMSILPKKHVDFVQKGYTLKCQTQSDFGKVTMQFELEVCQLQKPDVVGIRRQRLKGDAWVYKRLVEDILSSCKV

On to `COc1cc(-c2ccc3ncc(C(=O)C4CC4)c(Nc4ccc(CN5CCC(N(C)C)C5)cc4)c3c2)cc(Cl)c1O` (stereo not shown) [Example 697, (6-(3-chloro-4-hydroxy-5-methoxyphenyl)-4-(4-((3-(dimethylamino)pyrrolidin-1-yl)methyl)phenylamino)quinolin-3-yl)(cyclopropyl)methanone], for which the IC50 was 0.0084 µM in assay [1]; 0.81 µM in assay [2]; 0.44 µM in assay [3]; 1.8 µM in assay [4]; 0.64 µM in assay [5].
On to `CN(C)CCc1cccc(Nc2c(C(=O)C3CC3)cnc3ccc(-c4cc(Cl)c(O)c(Cl)c4)cc23)c1` [Example 698, Cyclopropyl{6-(3,5-dichloro-4-hydroxyphenyl)-4-[3-(2-(dimethylamino)ethyl)phenylamino]quinolin-3-yl}methanone], for which the IC50 in assay [1] was 0.0024 µM; in assay [2] it was 0.3 µM; in assay [3], 0.05 µM; in assay [4], 10 µM; in assay [5], 0.04 µM.
For `CN1CCCC(n2cc(Nc3c(C(=O)C4CC4)cnc4ccc(-c5cc(F)c(O)c(Cl)c5)cc34)cn2)C1` (stereo not shown) [Example 699, {6-(3-Chloro-5-fluoro-4-hydroxyphenyl)-4-[1-(1-methylpiperidin-3-yl)-1H-pyrazol-4-ylamino]quinolin-3-yl}(cyclopropyl)methanone], in that order: 0.0026 µM, 0.24 µM, 0.18 µM, 2.7 µM and 0.072 µM.
As to `O=C(c1cnc2ccc(-c3cc(Cl)c(O)c(Cl)c3)cc2c1N[C@H]1CC[C@H](CNCCF)CC1)C1CC1` [Example 700], the IC50 in assay [1] came out at 0.0015 µM; in assay [2], 0.47 µM; in assay [3] it was 0.47 µM; in assay [4] it was 2.2 µM; in assay [5] it was 0.25 µM.
As for `O=C(c1cnc2ccc(-c3cc(F)c(O)c(Cl)c3)cc2c1N[C@H]1CC[C@H](CNCCF)CC1)C1CC1` [Example 701], the 50% inhibitory concentration (IC50) is 0.003 µM in assay [1]; 0.29 µM in assay [2]; 0.41 µM in assay [3]; 0.98 µM in assay [4]; 0.38 µM in assay [5].
With `CC(=O)c1cnc2ccc(-c3cc(Cl)c(O)c(Cl)c3)cc2c1Nc1ccc(N2CCNCC2)nc1` [Example 702], the IC50 came to 0.0014 µM in assay [1]; 0.046 µM in assay [2]; 0.14 µM in assay [3]; 2.4 µM in assay [4]; 0.044 µM in assay [5].
Consider `CN1CCCC(n2cc(Nc3c(C(=O)C4CC4)cnc4ccc(-c5cc(Cl)c(O)c(Cl)c5)cc34)cn2)C1` (stereo not shown) [Example 703, Cyclopropyl{6-(3,5-dichloro-4-hydroxyphenyl)-4-[1-(1-methylpiperidin-3-yl)-1H-pyrazol-4-ylamino]quinolin-3-yl}methanone], for which the IC50 was 0.0013 µM in assay [1]; 0.33 µM in assay [2]; 0.11 µM in assay [3]; 5.5 µM in assay [4]; 0.052 µM in assay [5].
The corresponding values for `COc1cc(-c2ccc3ncc(C(C)=O)c(Nc4ccc(N5CCNCC5)nc4)c3c2)cc(Cl)c1O` [Example 704, 1-(6-(3-chloro-4-hydroxy-5-methoxyphenyl)-4-(6-(piperazin-1-yl)pyridin-3-ylamino)quinolin-3-yl)ethanone hydrochloride] are 0.0023 µM, 0.17 µM, 0.2 µM, 2.1 µM and 0.12 µM.
For `CN[C@H]1CC[C@H](n2cc(Nc3c(C(=O)C4CC4)cnc4ccc(-c5cc(Cl)c(O)c(Cl)c5)cc34)cn2)CC1` [Example 705, Cyclopropyl{6-(3,5-dichloro-4-hydroxyphenyl)-4-[1-(trans-4-(methylamino)cyclohexyl)-1H-pyrazol-4-ylamino]quinolin-3-yl}methanone], the IC50 in assay [1] is 0.0017 µM; in assay [2], 0.24 µM; in assay [3] it was 1.7 µM; in assay [4], 10 µM; in assay [5] it was 0.072 µM.
The corresponding values for `N[C@H]1CC[C@H](n2cc(Nc3c(C(=O)C4CC4)cnc4ccc(-c5cc(Cl)c(O)c(Cl)c5)cc34)cn2)CC1` [Example 706, (4-((1-(trans-4-aminocyclohexyl)-1H-pyrazol-4-yl)amino)-6-(3,5-dichloro-4-hydroxyphenyl)quinolin-3-yl)(cyclopropyl)methanone dihydrochloride] are 0.0011 µM, 0.042 µM, 0.59 µM, 7.9 µM and 0.02 µM.
As to `CN(C)CC(O)c1ccc(Nc2c(C(=O)C3CC3)cnc3ccc(-c4cc(F)c(O)c(Cl)c4)cc23)cc1` (stereo not shown) [Example 707, {6-(3-Chloro-5-fluoro-4-hydroxyphenyl)-4-[4-(2-(dimethylamino)-1-hydroxyethyl)phenylamino]quinolin-3-yl}(cyclopropyl)methanone], the IC50 in assay [1] was 0.0059 µM; in assay [2] it was 0.21 µM; in assay [3], 0.13 µM; in assay [4], 3.4 µM; in assay [5], 0.081 µM.
Consider `COc1cc(-c2ccc3ncc(C(=O)C4CC4)c(Nc4ccc(C(O)CN(C)C)cc4)c3c2)cc(Cl)c1O` (stereo not shown) [Example 708, (6-(3-chloro-4-hydroxy-5-methoxyphenyl)-4-(4-(2-(dimethylamino)-1-hydroxyethyl)phenylamino)quinolin-3-yl)(cyclopropyl)methanone], for which the IC50 in assay [1] turned out to be 0.0065 µM; in assay [2] it was 0.41 µM; in assay [3], 0.3 µM; in assay [4] it was 4.6 µM; in assay [5] it was 0.25 µM.
`CN(C)CC(O)c1ccc(Nc2c(C(=O)C3CC3)cnc3ccc(-c4cc(Cl)c(O)c(Cl)c4)cc23)cc1` (stereo not shown) [Example 709, Cyclopropyl{6-(3,5-dichloro-4-hydroxyphenyl)-4-[4-(2-(dimethylamino)-1-hydroxyethyl)phenylamino]quinolin-3-yl}methanone]: the IC50 was 0.0035 µM in assay [1]; 0.2 µM in assay [2]; 0.14 µM in assay [3]; 3.8 µM in assay [4]; 0.077 µM in assay [5].
`CN(C)CCOc1ccc(Nc2c(C(=O)C3CC3)cnc3ccc(-c4cc(F)c(O)c(Cl)c4)cc23)cn1` [Example 710, (6-(3-Chloro-5-fluoro-4-hydroxyphenyl)-4-(6-(2-(dimethylamino)ethoxy)pyridin-3-ylamino)quinolin-3-yl)(cyclopropyl)methanone]: the IC50 in assay [1] is 0.0069 µM; in assay [2], 0.15 µM; in assay [3], 0.09 µM; in assay [4], 2 µM; in assay [5] it was 0.083 µM.
For `CN(C)CCOc1ccc(Nc2c(C(=O)C3CC3)cnc3ccc(-c4cc(Cl)c(O)c(Cl)c4)cc23)cn1` [Example 711, Cyclopropyl(6-(3,5-dichloro-4-hydroxyphenyl)-4-(6-(2-(dimethylamino)ethoxy)pyridin-3-ylamino)quinolin-3-yl)methanone], the IC50 in assay [1] stood at 0.0032 µM; in assay [2], 0.22 µM; in assay [3], 0.11 µM; in assay [4] it was 5.7 µM; in assay [5] it was 0.073 µM.
On to `COc1cc(-c2ccc3ncc(C(=O)C4CC4)c(Nc4ccc(OCCN(C)C)nc4)c3c2)cc(Cl)c1O` [Example 712, (6-(3-chloro-4-hydroxy-5-methoxyphenyl)-4-(6-(2-(dimethylamino)ethoxy)pyridin-3-ylamino)quinolin-3-yl)(cyclopropyl)methanone], for which the IC50 in assay [1] is 0.0036 µM; in assay [2], 0.31 µM; in assay [3], 0.31 µM; in assay [4], 5.4 µM; in assay [5], 0.34 µM.
For the molecule `CCC(=O)c1cnc2ccc(-c3cc(Cl)c(O)c(OC)c3)cc2c1N[C@H]1CC[C@H](CN(C)C)CC1` [Example 713], the 50% inhibitory concentration (IC50) in assay [1] was determined as 0.0024 µM; in assay [2], 0.2 µM; in assay [3], 0.18 µM; in assay [4], 4.9 µM; in assay [5] it was 0.15 µM.
On to `CCC(=O)c1cnc2ccc(-c3cc(F)c(O)c(Cl)c3)cc2c1N[C@H]1CC[C@H](CN(C)C)CC1` [Example 714, 1-(6-(3-chloro-5-fluoro-4-hydroxyphenyl)-4-((trans-4-((dimethylamino)methyl)cyclohexyl)amino)quinolin-3-yl)propan-1-one], for which the IC50 was 0.004 µM in assay [1]; 0.054 µM in assay [2]; 0.11 µM in assay [3]; 0.55 µM in assay [4]; 0.067 µM in assay [5].
Turning to `CCC(=O)c1cnc2ccc(-c3cc(Cl)c(O)c(Cl)c3)cc2c1N[C@H]1CC[C@H](CN(C)C)CC1` [Example 715, 1-(6-(3,5-dichloro-4-hydroxyphenyl)-4-((trans-4-((dimethylamino)methyl)cyclohexyl)amino)quinolin-3-yl)propan-1-one], the IC50 in assay [1] was 0.0015 µM; in assay [2] it was 0.087 µM; in assay [3], 0.11 µM; in assay [4], 0.84 µM; in assay [5] it was 0.046 µM.
Turning to `CC(=O)c1cnc2ccc(-c3cc(F)c(O)c(Cl)c3)cc2c1N[C@@H]1CC[C@@H](CN(C)C)C1` [Example 717, 1-(6-(3-chloro-5-fluoro-4-hydroxyphenyl)-4-((1R,3R)-3-((dimethylamino)methyl)cyclopentylamino)quinolin-3-yl)ethanone], the IC50 is 0.011 µM in assay [1]; 0.42 µM in assay [2]; 0.65 µM in assay [3]; 2 µM in assay [4]; 0.34 µM in assay [5].

The values above are taken from patent publication US9120749B2, “Quinoline derivatives and MELK inhibitors containing the same” (ONCOTHERAPY SCIENCE, INC., priority 2010, dated 2015).
